Results reported in ChEMBL document CHEMBL1201862, “PubChem BioAssay data set” (2004).
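Exposure lasted 48 hours, with cells grown in 96-well plates and compounds tested at five concentrations. At the GI50, growth is halved.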 Active and inactive are the calls of the source. No stated cut-off is given here; in the data, active = GI50 up to about 1.1 µM and inactive = higher.

What was measured:
Assay in all cases: NCI anticancer screen, dose series, 48 h
DU-145 = test system: DU-145
MDA-MB-231 = test system: MDA-MB-231
MDA-N = test system: MDA-N
LXFL 529 = test system: LXFL 529
RXF 631 = test system: RXF 631
Hs-578T = test system: Hs-578T
T47D = test system: T47D
HOP-18 = test system: HOP-18

Row | Structure (SMILES) | GI50 (DU-145) | GI50 (MDA-MB-231) | GI50 (MDA-N) | GI50 (LXFL 529) | GI50 (RXF 631) | GI50 (Hs-578T) | GI50 (T47D) | GI50 (HOP-18)
1 | Cc1cccc2sc(-c3ccc(O)cc3)nc12 | 17.8 µM (inactive) | 19.8 µM (inactive) | 3.97 µM (inactive) |  |  |  |  | 
2 | Cc1ccc(NC(=O)CC(=O)n2nc(-c3ccccc3)c(/N=N/c3ccccc3C(=O)O)c2-c2ccccc2)cc1 |  |  |  | > 100 µM (inactive) | > 100 µM (inactive) |  |  | 
3 | COc1nc(Cl)nc(N[C@H](C)c2c3ccccc3cc3ccccc23)n1 | 12.4 µM (inactive) | 13.9 µM (inactive) | 2.71 µM (inactive) |  |  | 7.69 µM (inactive) | 1.99 µM (inactive) | 
4 | COc1c2ccoc2c(S(=O)(=O)Nc2ccc(Cl)cc2)c2oc(C)cc(=O)c12 |  |  |  |  |  |  |  | > 54.8 µM (inactive)
5 | CCN(CC)CCCNC(=O)c1ccccc1Nc1c(Cl)cccc1Cl |  |  |  | 14.6 µM (inactive) |  |  |  | 
6 | O=C1CN2Cc3cc(N4CCOCC4)ccc3N=C2N1 | 49.5 µM (inactive) | 88.1 µM (inactive) |  |  |  | 23.8 µM (inactive) | > 100 µM (inactive) | 
7 | O=c1cnn(C/C=C/CP(=O)(O)O)c(=O)[nH]1 | > 100 µM (inactive) | > 100 µM (inactive) | > 100 µM (inactive) |  |  | > 100 µM (inactive) | > 100 µM (inactive) | 
8 | CCOC(=O)C(C)OC(=O)c1ccc(C)cc1 (centres undefined) |  |  |  | > 100 µM (inactive) | > 100 µM (inactive) |  |  | > 100 µM (inactive)
9 | COC1=CC(=O)c2c(c(COC(C)=O)cn2C)C1=O | 0.0457 µM (active) | 0.389 µM (active) | 0.0942 µM (active) |  |  |  | 0.736 µM (active) | 
10 | O=C(O)CCCCCCC[C@@H]1S[C@H]1CCCCCCO |  |  |  |  |  |  |  | > 100 µM (inactive)
11 | Nc1nc(N)nc(-c2ccccc2NS(=O)(=O)c2ccc([N+](=O)[O-])cc2)n1 |  |  |  |  |  |  |  | > 100 µM (inactive)
12 | CS(=O)(=O)c1ccc2nc(-c3ccc(O)cc3)sc2c1 | 15.7 µM (inactive) | 20.6 µM (inactive) | 17.7 µM (inactive) |  |  |  |  | 
13 | COc1ccc2[nH]c(C(=O)N3CC(CCl)c4c3cc(N)c3ccccc43)cc2c1 (centres undefined) | < 0.01 µM (active) | < 0.0204 µM (active) | 0.0112 µM (active) |  |  |  | 0.0101 µM (active) | 
14 | COc1ccc2c(=O)c(O)c(-c3ccc(OC)c(OC)c3)oc2c1 | 4.04 µM (inactive) | 4.8 µM (inactive) | > 100 µM (inactive) |  |  |  | > 100 µM (inactive) | 
15 | CC(C)CC/N=c1/cc2n(-c3ccc(Cl)cc3)c3ccccc3nc-2cc1Nc1ccc(Cl)cc1 |  |  |  |  |  |  |  | 7.05 µM (inactive)
16 | O=C(O)CC/C(=N\Nc1nsc2ccccc12)c1ccccc1 |  |  |  | 42.5 µM (inactive) |  |  |  | > 100 µM (inactive)
17 | COc1ccc2oc3c(ccc[n+]3C)c(=O)c2c1 | > 100 µM (inactive) | > 100 µM (inactive) | > 100 µM (inactive) |  |  | > 100 µM (inactive) | > 100 µM (inactive) | 
